The values that follow are results of earlier work, collected in publication PMC8761874 (European Journal of Nuclear Medicine and Molecular Imaging, 2022).

Where two headings read alike, the source gives them in different places.

In series [1] the test system is PD-L1-positive non-small cell lung cancer. As to conditions: tiragolumab plus atezolizumab, ref [15].
In series [2] the test system is patients with advanced solid tumors. As to conditions: ref [13].

As to “tiragolumab: anti-TIGIT mAb, given with atezolizumab in the CITYSCAPE trial”, the “objective response rate (ORR)” value in series [1] (subgroup with high PD-L1 expression) is on record as 66%; in series [1], 37%.

B1: MK-7684: anti-TIGIT mAb in a phase I trial (antibody, chains of the INN, looked up, V domains shown)
VH: EVQLVQSGAEVKKPGSSVKVSCKASGYTFSSYVMHWVRQAPGQGLEWIGYIDPYNDGAKYAQKFQGRVTLTSDKSTSTAYMELSSLRSEDTAVYYCARGGPYGWYFDVWGQGTTVTVSS
VL: DIQMTQSPSSLSASVGDRVTITCRASEHIYSYLSWYQQKPGKVPKLLIYNAKTLAEGVPSRFSGSGSGTDFTLTISSLQPEDVATYYCQHHFGSPLTFGQGTRLEIK
As for B1, the partial response rate is given as 19% in series [2] (in combination with pembrolizumab, n = 8/43) and 3% in series [2] (monotherapy, n = 1/34).
